Kd data for one molecule are collected here from PMC5413048, “Palmitic acid is a toll-like receptor 4 ligand that induces human dendritic cell secretion of IL-1β” (PLoS ONE, 2017).

The Kd is the equilibrium constant for the complex coming apart.

This assay deals with T1, MD-2 (TLR4/MD-2 complex) (Homo sapiens, UniProt Q9Y6Y9).
T1 construct: gene LY96; MD2 Glu17—Asn160 + 10-His Tag, co-expressed with TLR4 ectodomain Glu24—Lys631 + 10-His Tag; with TLR4 (O00206), ectodomain Glu24—Lys631
Kind of assay: isothermal titration calorimetry of PA into recombinant human TLR4/MD-2 ([…]°C). In kind it is binding. In general terms: ITC needs no label: the signal is the heat of the interaction.

Each structure is given as a SMILES string.

T1 sequence (Q9Y6Y9 17-160): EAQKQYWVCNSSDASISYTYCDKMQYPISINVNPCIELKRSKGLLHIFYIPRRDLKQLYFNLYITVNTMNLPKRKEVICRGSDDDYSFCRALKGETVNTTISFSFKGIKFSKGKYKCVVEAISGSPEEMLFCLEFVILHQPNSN
T1 sequence (O00206 24-631 partner): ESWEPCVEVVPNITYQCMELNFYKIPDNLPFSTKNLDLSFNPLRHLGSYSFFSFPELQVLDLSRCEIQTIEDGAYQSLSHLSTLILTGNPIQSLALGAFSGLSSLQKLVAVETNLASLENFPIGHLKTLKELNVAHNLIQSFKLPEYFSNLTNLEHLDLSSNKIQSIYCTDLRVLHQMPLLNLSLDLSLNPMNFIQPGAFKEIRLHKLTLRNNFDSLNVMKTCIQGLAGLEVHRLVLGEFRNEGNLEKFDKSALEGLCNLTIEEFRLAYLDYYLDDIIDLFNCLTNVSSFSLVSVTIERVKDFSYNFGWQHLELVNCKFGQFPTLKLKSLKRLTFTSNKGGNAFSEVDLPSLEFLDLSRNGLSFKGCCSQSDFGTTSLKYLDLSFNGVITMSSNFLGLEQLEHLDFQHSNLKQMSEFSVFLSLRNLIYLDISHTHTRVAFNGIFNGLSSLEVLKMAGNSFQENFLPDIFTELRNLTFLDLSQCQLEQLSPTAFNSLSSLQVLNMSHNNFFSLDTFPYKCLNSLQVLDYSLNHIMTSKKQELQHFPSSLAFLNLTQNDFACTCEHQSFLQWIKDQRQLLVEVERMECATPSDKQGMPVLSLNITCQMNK

With `CCCCCCCCCCCCCCCC(=O)O` [PA, palmitic acid], the equilibrium dissociation constant (Kd) came to 2300 nM.
